Assay results taken from PubChem BioAssay (NCI).
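Each compound was tested at five concentrations against cells in 96-well plates for 48 hours. GI50: concentration for 50% inhibition of growth. The concentration for full growth arrest is given as TGI.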

Key:
Experiment in all cases: NCI tumour cell line growth inhibition, 48 h
EKVX NSCLC = system: EKVX NSCLC
M14 melanoma = system: M14 melanoma
SNB-75 CNS = system: SNB-75 CNS
SNB-19 CNS = system: SNB-19 CNS
DU-145 prostate = system: DU-145 prostate
HCT-116 colon = system: HCT-116 colon
U251 CNS = system: U251 CNS
OVCAR-8 ovarian = system: OVCAR-8 ovarian
MOLT-4 leukemia = system: MOLT-4 leukemia
OVCAR-5 ovarian = system: OVCAR-5 ovarian
A498 renal = system: A498 renal
MDA-MB-231 breast = system: MDA-MB-231 breast
786-0 renal = system: 786-0 renal
SK-MEL-5 melanoma = system: SK-MEL-5 melanoma
MDA-MB-435 = system: MDA-MB-435
HT29 colon = system: HT29 colon
SK-MEL-28 melanoma = system: SK-MEL-28 melanoma
MCF7 breast = system: MCF7 breast
NCI-H522 lung = system: NCI-H522 lung
SK-OV-3 ovarian = system: SK-OV-3 ovarian
HCC-2998 colon = system: HCC-2998 colon
NCI-H226 lung = system: NCI-H226 lung
HS 578T breast = system: HS 578T breast
HOP-62 NSCLC = system: HOP-62 NSCLC
TK-10 renal = system: TK-10 renal
OVCAR-3 ovarian = system: OVCAR-3 ovarian
PC-3 prostate = system: PC-3 prostate
HCT-15 colon = system: HCT-15 colon
SN12C renal = system: SN12C renal
MALME-3M melanoma = system: MALME-3M melanoma
RPMI-8226 leukemia = system: RPMI-8226 leukemia
UO-31 renal = system: UO-31 renal
CCRF-CEM leukemia = system: CCRF-CEM leukemia
SF-539 CNS = system: SF-539 CNS
SW-620 colon = system: SW-620 colon
UACC-257 melanoma = system: UACC-257 melanoma
A549 NSCLC = system: A549 NSCLC
RXF 393 renal = system: RXF 393 renal
KM12 colon = system: KM12 colon
K-562 leukemia = system: K-562 leukemia
UACC-62 melanoma = system: UACC-62 melanoma
NCI-H23 lung = system: NCI-H23 lung
HL-60(TB) leukemia = system: HL-60(TB) leukemia
CAKI-1 renal = system: CAKI-1 renal
NCI/ADR-RES ovarian = system: NCI/ADR-RES ovarian
SF-295 CNS = system: SF-295 CNS
LOX IMVI melanoma = system: LOX IMVI melanoma
T-47D breast = system: T-47D breast
COLO 205 colon = system: COLO 205 colon
SF-268 CNS = system: SF-268 CNS
HOP-92 NSCLC = system: HOP-92 NSCLC
OVCAR-4 ovarian = system: OVCAR-4 ovarian
NCI-H460 lung = system: NCI-H460 lung
BT-549 breast = system: BT-549 breast
SR leukemia = system: SR leukemia
ACHN renal = system: ACHN renal

## COc1ccc(-c2ncnc3c2ncn3CC#CCCl)cc1
EKVX NSCLC
  GI50: 12.8 µM
  TGI: 29.6 µM
M14 melanoma
  GI50: 4.55 µM
  TGI: 17.4 µM
SNB-75 CNS
  GI50: 1.64 µM
  TGI: 4.84 µM
SNB-19 CNS
  GI50: 4.87 µM
  TGI: 18.1 µM
DU-145 prostate
  GI50: 4.74 µM
  TGI: 18.4 µM
HCT-116 colon
  GI50: 3.5 µM
  TGI: 14.7 µM
U251 CNS
  GI50: 1.96 µM
  TGI: 4.85 µM
OVCAR-8 ovarian
  GI50: 11.6 µM
  TGI: > 100 µM
MOLT-4 leukemia
  GI50: 2.68 µM
  TGI: > 100 µM
OVCAR-5 ovarian
  GI50: 3.25 µM
  TGI: 12.1 µM
A498 renal
  GI50: 2.15 µM
  TGI: 12.5 µM
MDA-MB-231 breast
  GI50: 2.32 µM
  TGI: 8.28 µM
786-0 renal
  GI50: 1.86 µM
  TGI: 3.93 µM
SK-MEL-5 melanoma
  GI50: 3.16 µM
  TGI: 12.4 µM
MDA-MB-435
  GI50: 2.71 µM
  TGI: 11.5 µM
HT29 colon
  GI50: 7.12 µM
  TGI: 24.6 µM
SK-MEL-28 melanoma
  GI50: 9.87 µM
  TGI: 21.8 µM
MCF7 breast
  GI50: 2.48 µM
  TGI: 12.2 µM
NCI-H522 lung
  GI50: 3.09 µM
  TGI: 14 µM
SK-OV-3 ovarian
  GI50: 10.5 µM
  TGI: 22.7 µM
HCC-2998 colon
  GI50: 17.6 µM
  TGI: 31.8 µM
NCI-H226 lung
  GI50: 4.45 µM
  TGI: 26.2 µM
HS 578T breast
  GI50: 3.8 µM
  TGI: 22.1 µM
HOP-62 NSCLC
  GI50: 1.79 µM
  TGI: 3.31 µM
TK-10 renal
  GI50: 7.29 µM
  TGI: 24 µM
OVCAR-3 ovarian
  GI50: 1.93 µM
  TGI: 5.75 µM
PC-3 prostate
  GI50: 6.82 µM
  TGI: 24.7 µM
HCT-15 colon
  GI50: 4.07 µM
  TGI: 17.7 µM
SN12C renal
  GI50: 2.26 µM
  TGI: 6.32 µM
MALME-3M melanoma
  GI50: 2.58 µM
  TGI: 16 µM
RPMI-8226 leukemia
  GI50: 3.46 µM
  TGI: 20 µM
UO-31 renal
  GI50: 2.43 µM
  TGI: 15.3 µM
CCRF-CEM leukemia
  GI50: 3.84 µM
  TGI: 42.7 µM
SF-539 CNS
  GI50: 6.48 µM
  TGI: 20.9 µM
SW-620 colon
  GI50: 2.99 µM
  TGI: 12.4 µM
UACC-257 melanoma
  GI50: 5.74 µM
  TGI: 21.8 µM
A549 NSCLC
  GI50: 7.39 µM
  TGI: 30.7 µM
RXF 393 renal
  GI50: 2.29 µM
  TGI: 5.94 µM
KM12 colon
  GI50: 4.85 µM
  TGI: 17.5 µM
K-562 leukemia
  GI50: 8.06 µM
  TGI: > 100 µM
UACC-62 melanoma
  GI50: 3.32 µM
  TGI: 15.2 µM
NCI-H23 lung
  GI50: 7.83 µM
  TGI: 21.4 µM
HL-60(TB) leukemia
  GI50: 3.06 µM
  TGI: 17.6 µM
CAKI-1 renal
  GI50: 1.47 µM
  TGI: 3.11 µM
NCI/ADR-RES ovarian
  GI50: 2.72 µM
  TGI: 8.15 µM
SF-295 CNS
  GI50: 2.35 µM
  TGI: 7.15 µM
LOX IMVI melanoma
  GI50: 1.77 µM
  TGI: 3.52 µM
T-47D breast
  GI50: 2.89 µM
  TGI: 12.7 µM
COLO 205 colon
  GI50: 3.51 µM
  TGI: 13.7 µM
SF-268 CNS
  GI50: 1.66 µM
  TGI: 4.13 µM
HOP-92 NSCLC
  GI50: 2.75 µM
  TGI: 11.8 µM
OVCAR-4 ovarian
  GI50: 2.66 µM
  TGI: 12.5 µM
NCI-H460 lung
  GI50: 3.27 µM
  TGI: 12.4 µM
BT-549 breast
  GI50: 2.98 µM
  TGI: 13.6 µM
SR leukemia
  GI50: 5.24 µM
  TGI: > 100 µM
ACHN renal
  GI50: 3.62 µM
  TGI: 14.8 µM
